Legend:
[1] = Antiproliferative activity against rat OSRGA cells assessed as inhibition of cell viability after 72 hrs by XTT assay; format: functional, cell-based
[2] = Antiproliferative activity against mouse POS1 cells assessed as inhibition of cell viability after 72 hrs by XTT assay; format: functional, cell-based; settings: POS1, 72 h
L929 = assay: cells; settings: Mus musculus, L929, 72 h
Description: Antiproliferative activity against mouse L929 cells assessed as inhibition of cell viability after 72 hrs by XTT assay

cells = settings: Rattus norvegicus, 72 h
Description: Antiproliferative activity against rat AT6-1 cells assessed as inhibition of cell viability after 72 hrs by XTT assay

KB = assay: cells; settings: Homo sapiens, 72 h
Description: Antiproliferative activity against human KB cells assessed as inhibition of cell viability after 72 hrs by MTT assay

[3] = Antiproliferative activity against mouse L929 cells assessed as inhibition of cell viability at 60 to 2400 nM after 72 hrs by XTT assay; format: cell-based; set-up: dose or concentration left out as unconfirmed
[4] = Antiproliferative activity against rat AT6-1 cells assessed as inhibition of cell viability at 60 to 2400 nM after 72 hrs by XTT assay; format: functional
[5] = Antiproliferative activity against rat OSRGA cells assessed as inhibition of cell viability at 60 to 2400 nM after 72 hrs by XTT assay; format: functional

Row | IC50 (cells) [nM] | IC50 (KB) [nM] | Structure (SMILES) | IC50 [1] [nM] | IC50 [2] [nM] | IC50 (L929) [nM] | inhibition at 72 h [3] [%] | inhibition (INH) [4] [%] | inhibition (INH) [5] [%]
1 |  |  | COc1cccc2c1C(=O)c1c(O)c3c(c(O)c1C2=O)C[C@@](O)(C(=O)CO)C[C@@H]3O[C@H]1C[C@H](N)[C@H](O)[C@H](C)O1 [DOXORUBICIN] | 93 | 43 |  |  |  | 
2 | 29400 | > 100000 | C=C(C)C1(O)OC(=O)C=C1OC (centres undefined) [PENICILLIC ACID] |  | 7800 | 12900 |  |  | 
3 | > 2400 | > 478000 | CO[C@@H]1[C@H](OC(=O)CCC(=O)O)CC[C@](O)(CCl)[C@H]1[C@@]1(C)O[C@@H]1CC=C(C)C [LIGERIN] | > 2400 | 117 | > 2400 | 35 | 20 | 22
